Among the data in patent publication US12454525B2, “IL4I1 inhibitors and methods of use” (Merck Sharp & Dohme LLC, priority 2020, dated 2025) are EC50 values, retold here.

The structures appear in SMILES notation.

In this test the target is T1, recombinant IL4I1 (Homo sapiens, UniProt Q96RQ9).
T1 construct: purchased R&D Systems 5684-AO-020
T1 sequence (Q96RQ9 22-567): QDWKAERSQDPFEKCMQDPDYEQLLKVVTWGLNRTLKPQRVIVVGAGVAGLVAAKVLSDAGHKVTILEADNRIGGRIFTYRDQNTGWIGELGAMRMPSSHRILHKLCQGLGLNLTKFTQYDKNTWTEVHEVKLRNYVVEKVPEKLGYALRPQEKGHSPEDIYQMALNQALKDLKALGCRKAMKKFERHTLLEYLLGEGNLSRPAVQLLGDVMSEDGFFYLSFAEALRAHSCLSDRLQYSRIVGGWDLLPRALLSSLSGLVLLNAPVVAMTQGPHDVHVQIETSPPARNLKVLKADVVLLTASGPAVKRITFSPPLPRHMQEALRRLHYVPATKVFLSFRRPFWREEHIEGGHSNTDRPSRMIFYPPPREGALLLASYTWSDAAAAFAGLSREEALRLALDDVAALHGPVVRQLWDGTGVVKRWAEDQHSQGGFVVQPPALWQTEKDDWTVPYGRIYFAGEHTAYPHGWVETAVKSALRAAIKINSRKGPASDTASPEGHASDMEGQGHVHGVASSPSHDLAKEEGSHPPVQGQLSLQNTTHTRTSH
Description: IL4I1 Enzymatic Assay (Amplex Red/HRP coupled H2O2 detection). Format: biochemical. To be noted: 240 min; four-hour pre-incubation with compound; 1 nM IL4I1, 1 mM each Phe/Tyr/Trp; ten-point titration; fluorescence readout; read-out: Potency EC50 (nM) (240 min). Put shortly:
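Recombinant IL4I1 at 1 nM final, pre-incubated 4 h with compound (0.1% DMSO) at ambient temperature in 50 mM Hepes pH 7.0, 0.005% Tween20; 1 mM each Phe/Tyr/Trp, 120 min, H2O2 read via Amplex Red/HRP fluorescence (544/590 nm). EC50 from ten-point four-parameter fit.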
In the case of `COc1cccc(Cn2c(=O)n(C)c3cc(Cl)ccc32)c1` [Example 90, 5-chloro-1-(3-methoxybenzyl)-3-methyl-1,3-dihydro-2H-benzo[d]imidazol-2-one], the EC50 was found to be 227 nM.
To `COc1ccccc1Cn1c(=O)[nH]c2cccc(C)c21` [Example 91, 1-(2-methoxybenzyl)-7-methyl-1,3-dihydro-2H-benzo[d]imidazol-2-one] belongs 1340 nM; to `COc1ccccc1Cn1c(=O)[nH]c2c(C)cccc21` [Example 92, 1-(2-methoxybenzyl)-4-methyl-1,3-dihydro-2H-benzo[d]imidazol-2-one], 396 nM; to `O=c1[nH]c2c(N3CCCC3)cccc2n1Cc1ccccc1` [Example 93, 1-benzyl-4-(pyrrolidin-1-yl)-1,3-dihydro-2H-benzo[d]imidazol-2-one], 1340 nM.
In the case of `CC(=O)NCc1ccc(Cn2c(=O)[nH]c3ccc(F)cc32)cc1` [Example 94, N-(4-((6-fluoro-2-oxo-2,3-dihydro-1H-benzo[d]imidazol-1-yl)methyl)benzyl)acetamide], the EC50 came out at 9 nM.
In the case of `CCCS(=O)(=O)NCc1ccc(Cn2c(=O)[nH]c3ccc(F)cc32)cc1` [Example 95, N-(4-((6-fluoro-2-oxo-2,3-dihydro-1H-benzo[d]imidazol-1-yl)methyl)benzyl)propane-1-sulfonamide], the EC50 was found to be 6 nM.
To `COC1(C(=O)NCc2ccc(Cn3c(=O)[nH]c4ccccc43)cc2)CC1` [Example 96, 1-methoxy-N-(4-((2-oxo-2,3-dihydro-1H-benzo[d]imidazol-1-yl)methyl)benzyl)cyclopropane-1-carboxamide] belongs 21 nM; to `O=c1[nH]c2ccccc2n1CCCOc1cccc2cccnc12` [Example 97, 1-(3-(quinolin-8-yloxy)propyl)-1,3-dihydro-2H-benzo[d]imidazol-2-one], 45 nM; to `CS(=O)(=O)NC[C@H]1CC[C@H](Cn2c(=O)[nH]c3ccccc32)CC1` [Example 98, N-(((1r,4r)-4-((2-oxo-2,3-dihydro-1H-benzo[d]imidazol-1-yl)methyl)cyclohexyl)methyl)methanesulfonamide], 1570 nM.
To `CC(=O)N[C@H]1CC[C@H](Cn2c(=O)[nH]c3ccccc32)CC1` [Example 99, N-((1r,4r)-4-((2-oxo-2,3-dihydro-1H-benzo[d]imidazol-1-yl)methyl)cyclohexyl)acetamide] belongs 2690 nM.
To `O=c1[nH]c2cc(Cl)ccc2n1Cc1ccc(Cc2nnco2)cc1` [Example 100] belongs 784 nM; to `O=C(NCC(F)(F)F)c1cccc(Cn2c(=O)[nH]c3ccccc32)c1` [Example 101, 3-((2-oxo-2,3-dihydro-1H-benzo[d]imidazol-1-yl)methyl)-N-(2,2,2-trifluoroethyl)benzamide], 90 nM.
As for `O=C(c1cccc(Cn2c(=O)[nH]c3ccccc32)c1)N1CCC1` [Example 102, 1-(3-(azetidine-1-carbonyl)benzyl)-1,3-dihydro-2H-benzo[d]imidazol-2-one], the EC50 is 8 nM.
As to `O=C(Cc1cccc(Cn2c(=O)[nH]c3ccccc32)c1)Nc1cccnc1` [Example 103, 2-(3-((2-oxo-2,3-dihydro-1H-benzo[d]imidazol-1-yl)methyl)phenyl)-N-(pyridin-3-yl)acetamide], the concentration for a half-maximal effect (EC50) is 4 nM.
Take `N#Cc1cccc(NC(=O)Cc2cccc(Cn3c(=O)[nH]c4ccccc43)c2)c1` [Example 104, N-(3-cyanophenyl)-2-(3-((2-oxo-2,3-dihydro-1H-benzo[d]imidazol-1-yl)methyl)phenyl)acetamide]: the EC50 stood at 5 nM.
To `CN(C)C(=O)Cc1cccc(Cn2c(=O)[nH]c3ccccc32)c1` [Example 105, N,N-dimethyl-2-(3-((2-oxo-2,3-dihydro-1H-benzo[d]imidazol-1-yl)methyl)phenyl)acetamide] belongs 10 nM; to `O=C(Cc1ccc(Cn2c(=O)[nH]c3ccccc32)cc1)NC1CCC(F)C1` (centres unmarked) [Example 106, N-(3-fluorocyclopentyl)-2-(4-((2-oxo-2,3-dihydro-1H-benzo[d]imidazol-1-yl)methyl)phenyl)acetamide], 38 nM.

A word on the EC50: it is the concentration giving half of the maximal effect.
